The values below are quoted from earlier work in US9833411B2, “Solid oral dosage forms” (Enteris Biopharma, Inc., priority 2015, dated 2017).

≈ marks a conversion by molar mass, not a printed value.

The subject of data set [1] is Methicillin-Resistant Staphylococcus aureus (MRSA), Stenotrophomonas maltophilia, Haemophilus influenzae, and Neisseria gonorrhoeae. The conditions noted are these: values reported.
For data set [2] the following is noted: known formulations.

In the case of `CN(C)c1cc(NC(=O)CNC(C)(C)C)c(O)c2c1C[C@H]1C[C@H]3[C@H](N(C)C)C(O)=C(C(N)=O)C(=O)[C@@]3(O)C(O)=C1C2=O` [Tigecycline], the aqueous solubility entry is “approximately 300 mg/mL”. In addition, the MIC in data set [1] was 2 µg/mL (≈ 3.41 µM). For the same molecule, the “maximal oral bioavailability % (% F)” value in data set [2] is on record as “less than 5%”.
